Patent US20140135310A1, “SULPHONAMIDE DERIVATIVES OF ALICYCLIC AMINES FOR THE TREATMENT OF CENTRAL NERVOUS SYSTEM DISEASES” (Adamed Sp. z o.o., priority 2011, published 2014)
Where two headings read alike, the source gives them in different places.

Assays:
Assay type in all cases: cell-based
[1] = biological target: T1, 5-HT2C serotoninergic receptors (Homo sapiens, UniProt P28335); test: Cellular functional assay, 5-HT2C serotoninergic receptors; settings: for 5-HT2C ag [%]: agonist mode, percent of control specific agonist response; for 5-HT2C antag [%]: antagonist mode
T1 sequence (P28335 33-458): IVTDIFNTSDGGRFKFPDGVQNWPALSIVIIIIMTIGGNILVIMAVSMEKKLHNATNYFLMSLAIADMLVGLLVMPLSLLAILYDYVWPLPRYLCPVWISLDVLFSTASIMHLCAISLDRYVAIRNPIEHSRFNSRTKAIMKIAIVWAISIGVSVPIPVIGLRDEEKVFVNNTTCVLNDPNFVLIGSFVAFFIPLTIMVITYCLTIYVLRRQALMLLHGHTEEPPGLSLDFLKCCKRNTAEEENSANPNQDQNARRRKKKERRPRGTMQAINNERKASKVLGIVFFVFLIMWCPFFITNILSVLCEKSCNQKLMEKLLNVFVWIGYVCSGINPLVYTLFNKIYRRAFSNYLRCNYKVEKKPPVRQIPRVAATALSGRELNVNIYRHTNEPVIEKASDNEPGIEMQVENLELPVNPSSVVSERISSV
Method: (§1) The results are expressed as a percent of control specific agonist response ((measured specific response/control specific agonist response)×100) obtained in the presence of the test compounds.
(§2) The EC50 values (concentration producing a half-maximal specific response) and IC50 values (concentration causing a half-maximal inhibition of the control specific agonist response) were determined by non-linear regression analysis of the concentration-response curves generated with mean replicate values using Hill equation curve fitting (Y=D+[(A−D)/(1+(C/C50)nH)], where Y=specific response, D=minimum specific response, A=maximum specific response, C=compound concentration, and C50=EC50 or IC50, and nH=slope factor). This analysis was performed using a software developed at Cerep (Hill software) and validated by comparison with data generated by the commercial software SigmaPlot® 4.0 for Windows® (© 1997 by SPSS Inc.).
(§3) For the antagonists, the apparent dissociation constants (Kb) were calculated using the modified Cheng Prusoff equation (Kb=IC50/(1+(A/EC50A)), where A=concentration of reference agonist in the assay, and EC50A=EC50 value of the reference agonist).

[2] = biological target: 5-HT2A serotoninergic receptors (Homo sapiens, UniProt P28223); test: Cellular functional assay, 5-HT2A serotoninergic receptors
How it was run: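 Response expressed as percent of control specific agonist response; EC50 or IC50 from Hill-equation non-linear regression on mean replicate values. For antagonists, apparent Kb derived by modified Cheng-Prusoff using reference agonist concentration and its EC50.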

[3] = biological target: D2 dopaminergic receptors (Homo sapiens, UniProt P14416); test: Cellular functional assay, D2 dopaminergic receptors; settings: D2S (h), HEK-293 cells; for D2 ag [%]: agonism, percent of control specific agonist response (3 μM dopamine for control); for D2 antag [%]: antagonism, stimulus dopamine (30 nM)
How it was run: (§4)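 Responses expressed as percent of control specific agonist response; EC50 or IC50 from Hill-equation nonlinear fits of mean replicate concentration-response curves. For antagonists, Kb derived by modified Cheng-Prusoff using reference agonist concentration and its EC50.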

[4] = biological target: D3 dopaminergic receptors (Homo sapiens, UniProt P35462); test: Cellular functional assay, D3 dopaminergic receptors; settings: D3 (h), CHO cells; for D3 ag [%]: agonism, percent of control specific agonist response (0.3 μM dopamine for control); for D3 antag [%]: antagonism, stimulus dopamine (10 nM)
How it was run: as §4

[5] = biological target: 5-HT6 serotoninergic receptors (Homo sapiens, UniProt P50406); test: Cellular functional assay, 5-HT6 serotoninergic receptors; settings: agonist mode; percent of control specific agonist response
How it was run: as §4

[6] = biological target: T2, 5-HT1A serotoninergic receptors (Homo sapiens, UniProt P08908); test: Cellular functional assay, 5-HT1A serotoninergic receptors; settings: for 5-HT1A ag [%]: agonist mode, percent of control specific agonist response
T2 sequence (P08908 1-422): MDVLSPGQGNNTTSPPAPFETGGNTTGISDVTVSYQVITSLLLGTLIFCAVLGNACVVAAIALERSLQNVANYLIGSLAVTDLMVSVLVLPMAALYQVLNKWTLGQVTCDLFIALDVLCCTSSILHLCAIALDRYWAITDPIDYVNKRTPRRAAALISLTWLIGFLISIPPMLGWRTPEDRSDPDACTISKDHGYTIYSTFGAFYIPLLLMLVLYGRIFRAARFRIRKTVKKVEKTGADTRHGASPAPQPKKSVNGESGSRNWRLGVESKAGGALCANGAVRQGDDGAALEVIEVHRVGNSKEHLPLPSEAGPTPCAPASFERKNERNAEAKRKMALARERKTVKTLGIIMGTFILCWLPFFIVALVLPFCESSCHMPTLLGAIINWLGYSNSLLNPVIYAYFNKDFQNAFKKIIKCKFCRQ
Method: as §1, §2, §3

[7] = biological target: 5-HT7 serotoninergic receptors (Homo sapiens, UniProt P34969); test: Cellular functional assay, 5-HT7 serotoninergic receptors; settings: for 5-HT7 ag [%]: agonist mode, percent of control specific agonist response
How it was run: as §4

[8] = biological target: T3, D4 dopaminergic receptors (Homo sapiens, UniProt P21917); test: Cellular functional assay, D4 dopaminergic receptors; settings: D4.4 (h), CHO cells
T3 sequence (P21917 1-419): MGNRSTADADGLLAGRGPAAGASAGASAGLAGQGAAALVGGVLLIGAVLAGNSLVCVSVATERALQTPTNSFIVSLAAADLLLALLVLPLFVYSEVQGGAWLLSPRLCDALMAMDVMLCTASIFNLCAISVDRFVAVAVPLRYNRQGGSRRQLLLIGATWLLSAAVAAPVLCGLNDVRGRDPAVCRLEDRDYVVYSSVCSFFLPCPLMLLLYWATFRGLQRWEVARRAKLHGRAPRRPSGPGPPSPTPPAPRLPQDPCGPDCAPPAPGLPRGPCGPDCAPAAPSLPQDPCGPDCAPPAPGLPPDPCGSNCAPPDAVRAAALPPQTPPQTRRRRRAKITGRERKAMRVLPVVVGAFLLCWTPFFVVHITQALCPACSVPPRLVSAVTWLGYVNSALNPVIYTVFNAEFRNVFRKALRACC
Method: as §1, §2, §3

[9] = agonist mode, percent of control specific agonist response

Chain of 5-HT6 serotoninergic receptors (P50406 whole entry): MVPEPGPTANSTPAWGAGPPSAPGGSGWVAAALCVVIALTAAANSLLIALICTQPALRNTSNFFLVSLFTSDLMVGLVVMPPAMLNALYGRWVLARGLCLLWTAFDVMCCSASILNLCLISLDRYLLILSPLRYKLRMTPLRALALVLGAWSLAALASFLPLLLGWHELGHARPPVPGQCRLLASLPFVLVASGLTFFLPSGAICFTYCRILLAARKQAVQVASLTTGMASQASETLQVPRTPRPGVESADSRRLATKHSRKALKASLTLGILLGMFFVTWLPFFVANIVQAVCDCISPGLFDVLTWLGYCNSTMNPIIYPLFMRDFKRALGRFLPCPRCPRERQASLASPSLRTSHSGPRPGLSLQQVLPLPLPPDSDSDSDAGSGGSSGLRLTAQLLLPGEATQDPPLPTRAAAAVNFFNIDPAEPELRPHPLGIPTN
Chain of D2 dopaminergic receptors (P14416 whole entry): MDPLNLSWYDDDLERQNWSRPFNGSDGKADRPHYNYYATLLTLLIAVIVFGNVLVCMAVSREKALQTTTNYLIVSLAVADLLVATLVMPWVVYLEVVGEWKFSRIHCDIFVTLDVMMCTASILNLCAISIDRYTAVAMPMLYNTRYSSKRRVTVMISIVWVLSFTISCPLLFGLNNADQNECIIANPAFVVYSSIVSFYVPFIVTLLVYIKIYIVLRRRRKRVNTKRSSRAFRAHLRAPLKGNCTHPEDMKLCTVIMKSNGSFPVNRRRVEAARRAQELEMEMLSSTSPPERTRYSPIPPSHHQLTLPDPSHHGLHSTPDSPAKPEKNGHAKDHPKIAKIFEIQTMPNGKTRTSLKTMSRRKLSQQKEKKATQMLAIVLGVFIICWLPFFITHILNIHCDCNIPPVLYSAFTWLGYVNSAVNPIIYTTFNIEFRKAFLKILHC
Chain of D3 dopaminergic receptors (P35462 whole entry): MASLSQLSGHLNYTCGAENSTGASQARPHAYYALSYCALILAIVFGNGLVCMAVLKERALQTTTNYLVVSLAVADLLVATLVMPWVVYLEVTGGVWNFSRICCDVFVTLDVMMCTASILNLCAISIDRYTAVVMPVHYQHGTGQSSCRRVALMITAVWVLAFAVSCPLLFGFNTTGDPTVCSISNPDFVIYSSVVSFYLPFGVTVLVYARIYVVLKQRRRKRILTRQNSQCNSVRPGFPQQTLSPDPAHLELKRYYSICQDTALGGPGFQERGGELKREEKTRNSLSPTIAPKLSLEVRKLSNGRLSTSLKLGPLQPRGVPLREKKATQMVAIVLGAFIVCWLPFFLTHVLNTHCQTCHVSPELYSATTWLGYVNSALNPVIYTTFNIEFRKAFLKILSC
Chain of 5-HT7 serotoninergic receptors (P34969 whole entry): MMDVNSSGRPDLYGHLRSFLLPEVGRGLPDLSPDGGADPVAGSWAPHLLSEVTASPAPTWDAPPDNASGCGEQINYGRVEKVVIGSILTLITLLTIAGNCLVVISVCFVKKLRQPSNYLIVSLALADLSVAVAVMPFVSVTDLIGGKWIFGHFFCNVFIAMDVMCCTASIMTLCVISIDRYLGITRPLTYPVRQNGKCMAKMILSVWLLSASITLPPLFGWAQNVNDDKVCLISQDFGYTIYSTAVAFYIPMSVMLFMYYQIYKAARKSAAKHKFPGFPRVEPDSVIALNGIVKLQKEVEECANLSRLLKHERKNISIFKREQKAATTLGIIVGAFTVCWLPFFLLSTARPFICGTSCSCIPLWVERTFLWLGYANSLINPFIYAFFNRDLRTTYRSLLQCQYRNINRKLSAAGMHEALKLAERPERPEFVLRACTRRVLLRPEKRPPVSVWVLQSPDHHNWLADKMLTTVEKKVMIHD
Chain of 5-HT2A serotoninergic receptors (P28223 whole entry): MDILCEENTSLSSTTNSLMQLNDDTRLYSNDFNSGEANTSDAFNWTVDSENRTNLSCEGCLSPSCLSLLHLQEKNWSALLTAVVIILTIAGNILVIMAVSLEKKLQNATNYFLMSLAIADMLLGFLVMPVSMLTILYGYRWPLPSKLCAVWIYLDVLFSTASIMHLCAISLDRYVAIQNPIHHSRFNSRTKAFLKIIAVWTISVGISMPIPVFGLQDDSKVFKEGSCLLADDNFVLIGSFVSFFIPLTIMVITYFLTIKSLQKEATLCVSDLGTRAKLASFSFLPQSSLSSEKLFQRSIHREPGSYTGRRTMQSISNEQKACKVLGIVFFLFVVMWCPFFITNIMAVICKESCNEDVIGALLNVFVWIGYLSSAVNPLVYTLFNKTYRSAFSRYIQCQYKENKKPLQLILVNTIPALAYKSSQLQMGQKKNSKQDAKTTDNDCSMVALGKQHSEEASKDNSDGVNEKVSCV

| SMILES | 5-HT2C ag [%] [1] | 5-HT2A ag [%] [2, 9] | D2 ag [%] [3] | D2 antag [%] [3] | D3 ag [%] [4] | D3 antag [%] [4] | 5-HT6 ag [%] [5] | 5-HT2C antag [%] [1] | 5-HT1A ag [%] [6] | 5-HT2A ag [%] [2] | 5-HT7 ag [%] [7] | D4 ag [%] ([8]; agonism, percent of control specific agonist response (300 nM dopamine for control)) | D4 antag [%] ([8]; antagonism, stimulus dopamine (100 nM)) | 5-HT1A antag [%] ([6]; antagonist mode) | 5-HT2A antag [%] ([2]; antagonist mode) | 5-HT7 antag [%] ([7]; antagonist mode) |
| --- | --- | --- | --- | --- | --- | --- | --- | --- | --- | --- | --- | --- | --- | --- | --- | --- |
| COc1ccc2cc(S(=O)(=O)N[C@@H]3CCN(CCCc4noc5cc(F)ccc45)C3)ccc2c1 [Compound 230, N-[(3R)-1-[3-(6-Fluoro-1,2-benzoxazol-3-yl)propyl]pyrrolidin-3-yl]-6-methoxy-naphthalene-2-sulphonamide] | −2% | −2% | 3% | 94% | 0% | 89% | −1% | – | – | – | – | – | – | – | – | – |
| O=S(=O)(NCC1CN(CCOc2cccc3c2OCCO3)C1)c1ccc(Cl)c(Cl)c1 [Compound 183, 3,4-Dichloro-N-[[1-[2-(2,3-dihydro-1,4-benzodioxin-5-yloxy)ethyl]azetidin-3-yl]methyl]benzenesulphonamide] | 50% | – | 8% | 53% | – | – | – | 12% | 71% | 1% | 2% | – | – | – | – | – |
| Cc1c(S(=O)(=O)N[C@H]2CCN(CCCc3noc4cc(F)ccc34)C2)sc2ccc(F)cc12 [Compound 203, 5-Fluoro-N-[(3S)-1-[3-(6-fluoro-1,2-benzoxazol-3-yl)propyl]pyrrolidin-3-yl]-3-methyl-benzothiophene-2-sulphonamide] | 1% | −1% | 0% | 80% | 11% | 65% | −2% | – | – | – | 0% | – | – | – | – | – |
| Cc1ccc2sc(S(=O)(=O)N[C@@H]3CCN(CCCc4noc5cc(F)ccc45)C3)cc2c1 [Compound 228, N-[(3R)-1-[3-(6-Fluoro-1,2-benzoxazol-3-yl)propyl]pyrrolidin-3-yl]-5-methyl-benzothiophene-2-sulphonamide] | 0% | 1% | −1% | 94% | −15% | 98% | −2% | – | – | – | 0% | – | – | – | – | – |
| O=S(=O)(NC1CN(CCOc2cccc3c2OCCO3)C1)c1cccc2ccccc12 [Compound 94, N-[1-[2-(2,3-Dihydro-1,4-benzodioxan-8-yloxy)ethyl]azetidin-3-yl]-naphthalene-1-sulphonamide] | 92% | 7% | 45% | 99% | 51% | 38% | – | −57% | 41% | – | 19% | 60% | 9% | 90% | 48% | 68% |
| CC(C)(C)c1ccc(S(=O)(=O)NCC2CN(CCOc3cccc4c3OCCO4)C2)cc1 [Compound 181, 4-tert-Butyl-N-[[1-[2-(2,3-dihydro-1,4-benzodioxin-5-yloxy)ethyl]azetidin-3-yl]methyl]benzenesulphonamide] | 46% | – | – | – | – | – | – | 6% | 66% | – | 0% | – | – | – | – | – |
